IC50 and EC50 data for 20 compounds are collected here from patent US11970474B2, “Substituted benzodiazoles and use thereof in therapy” (THOMAS HELLEDAYS STIFTELSE FÖR MEDICINSK FORSKNING, priority 2018, dated 2024).

One may read the IC50 as the concentration that gives 50% inhibition. Higher therefore signals weaker potency. For orientation: EC50 means the concentration at which the effect is half-maximal.

One test deals with OGG1 (Homo sapiens (Human), UniProt O15527). As to the kind of experiment: In vitro OGG1 activity assay. It is filed as biochemical. As to conditions: 800 pM OGG1 enzyme, 2 nM human APEX1, 10 nM 8-oxoA:C substrate. The method, boiled down: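 Read-out is fluorescein fluorescence, with compounds in DMSO added first, then enzyme and substrate. OGG1 excises its substrate base from a quenched fluorophore-labelled duplex, and surplus APEX1 cuts the resulting apurinic site. The duplex then melts and fluorescence rises in proportion to glycosylase activity.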
Sequence of OGG1 (O15527 whole entry): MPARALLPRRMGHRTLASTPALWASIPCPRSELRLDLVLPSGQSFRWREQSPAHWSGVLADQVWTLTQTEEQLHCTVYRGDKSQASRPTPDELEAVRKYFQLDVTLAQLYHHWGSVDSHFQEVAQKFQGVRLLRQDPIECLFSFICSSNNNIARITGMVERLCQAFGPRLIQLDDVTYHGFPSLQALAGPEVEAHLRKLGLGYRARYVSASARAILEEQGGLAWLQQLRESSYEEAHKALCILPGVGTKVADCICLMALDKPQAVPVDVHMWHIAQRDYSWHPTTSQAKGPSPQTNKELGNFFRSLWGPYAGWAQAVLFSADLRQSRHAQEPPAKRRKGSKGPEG

In the next test the test system is MLE12 cells. As to the kind of experiment: Cell viability assay in MLE12 cells (resazurin). The class given is cell-based, mouse. Particulars: TNF-α 20 ng/ml, resazurin added after 24 hours culture. The method, boiled down: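 MLE12 cells (7500 cells/well) were seeded onto 11-point duplicate compound dose-responses, with TNF-α (final 20 ng/ml) added after 1 hour at 37° C. After 24 hours, resazurin was added for 6 hours and resorufin fluorescence read (ex544 nm/em595 nm). EC50 values were calculated by curve fitting.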

For the next test, the system named is CCL2. As to the kind of experiment: Mouse CCL2 assay in MLE12 cells. The class given is cell-based. Particulars: MLE12 cells, TNF-α 20 ng/ml, supernatant after 30 hours, HTRF, read-out: CCL2 (EC50). The method, boiled down:
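CCL2 in supernatants was quantified by two-antibody HTRF FRET, read at 620 and 665 nm after overnight RT incubation, with IC50 derived from delta ratios. Cells were SV40-transformed mouse MLE12, treated with duplicate 6-point compound series for 1 h before 30 h TNF-α (20 ng/ml final) stimulation.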
On the technique in general: TR-FRET usually uses a lanthanide donor and a delayed reading to cut background.

Where two headings read alike, the source gives them in different places. Where only a bound is given, the exact number is not on record here.

Consider `COc1cc(NC(=O)N2CCC(n3c(=O)[nH]c4c(-c5ccc(CO)nc5)cccc43)CC2)ccc1C` [Example 82, 4-{4-[6-(Hydroxymethyl)pyridin-3-yl]-2-oxo-2,3-dihydro-1H-1,3-benzodiazol-1-yl}-N-(3-methoxy-4-methylphenyl)piperidine-1-carboxamide], for which the IC50 was determined as 1 µM against OGG1 and 17.7 µM in the test with MLE12 cells (Mus musculus, MLE12, 24 h). Further, in the test with CCL2 (Mus musculus, MLE12, 30 h), the EC50 amounted to 30.8 µM.
As to `O=c1[nH]c2c(Br)cccc2n1[C@H]1CC[C@@H](C(=O)Nc2ccc(O)c(Cl)c2)CC1` [Example 201, Cis-4-(4-bromo-2-oxo-2,3-dihydro-1H-1,3-benzodiazol-1-yl)-N-(3-chloro-4-hydroxyphenyl)cyclohexane-1-carboxamide], the IC50 against OGG1 was 0.0351 µM; with MLE12 cells (Mus musculus, MLE12, 24 h), 10.4 µM. In addition, in the test with CCL2 (Mus musculus, MLE12, 30 h), the EC50 was 18.2 µM.
On the same counts, the results for `O=C(Nc1ccc(I)cc1)N1CCC(n2c(=O)[nH]c3c(-n4cccn4)cccc32)CC1` [Example 22, N-(4-iodophenyl)-4-[2-oxo-4-(1H-pyrazol-1-yl)-2,3-dihydro-1H-1,3-benzodiazol-1-yl]piperidine-1-carboxamide] are 0.848 µM, 13.8 µM and 52.7 µM.
In the same order, the values of `COc1cc(NC(=O)[C@H]2CC[C@@H](n3c(=O)[nH]c4c(OCCN(C)C(=O)OC(C)(C)C)cccc43)CC2)ccc1C` [Example 308, tert-Butyl N-methyl-N-[2-({2-oxo-1-[cis-4-[(3-methoxy-4-methylphenyl)carbamoyl]cyclohexyl]-2,3-dihydro-1H-1,3-benzodiazol-4-yl}oxy)ethyl]carbamate] are 0.157 µM, 0.215 µM and 2.04 µM.
For `COc1cc(NC(=O)[C@H]2CC[C@@H](n3c(=O)[nH]c4c(N(C)Cc5ccccc5)cccc43)CC2)ccc1C` [Example 243, Cis-4-{4-[benzyl(methyl)amino]-2-oxo-2,3-dihydro-1H-1,3-benzodiazol-1-yl}-N-(3-methoxy-4-methylphenyl)cyclohexane-1-carboxamide], the concentration for half-maximal inhibition (IC50) worked out at 1.47 µM at OGG1 and 5.74 µM in the test with MLE12 cells (Mus musculus, MLE12, 24 h). Moreover, the EC50 with CCL2 (Mus musculus, MLE12, 30 h) was determined as 14.7 µM.
As for `COc1cc(NC(=O)N2C3CCC2CC(n2c(=O)[nH]c4c(-c5ccc(CO)nc5)cccc42)C3)ccc1C` (stereo not drawn) [Example 92, 3-{4-[6-(Hydroxymethyl)pyridin-3-yl]-2-oxo-2,3-dihydro-1H-1,3-benzodiazol-1-yl}-N-(3-methoxy-4-methylphenyl)-(endo)-8-azabicyclo[3.2.1]octane-8-carboxamide], the half-inhibitory concentration (IC50) against OGG1 worked out at 0.084 µM; in the test with MLE12 cells (Mus musculus, MLE12, 24 h), 13.7 µM. In addition, the concentration giving a half-maximal response (EC50) in the test on CCL2 (Mus musculus, MLE12, 30 h) is 38.8 µM.
Consider `COc1cc(NC(=O)[C@H]2CC[C@@H](n3c(=O)[nH]c4c(C(=O)NCc5ncccn5)cccc43)CC2)ccc1C` [Example 276, 2-Oxo-N-[(pyrimidin-2-yl)methyl]-1-[cis-4-[(3-methoxy-4-methylphenyl)carbamoyl]cyclohexyl]-2,3-dihydro-1H-1,3-benzodiazole-4-carboxamide], for which the IC50 was 0.0029 µM against OGG1 and 16.9 µM in the test on MLE12 cells (Mus musculus, MLE12, 24 h). Also, the EC50 in the test on CCL2 (Mus musculus, MLE12, 30 h) turned out to be 54 µM.
In the same order, the values of `COc1cc(NC(=O)[C@H]2CC[C@@H](n3c(=O)[nH]c4c(C(=O)N5CCOCC5)cccc43)CC2)ccc1C` [Example 262, Cis-N-(3-methoxy-4-methylphenyl)-4-[4-(morpholine-4-carbonyl)-2-oxo-2,3-dihydro-1H-1,3-benzodiazol-1-yl]cyclohexane-1-carboxamide] are 0.348 µM, 19.7 µM and > 100 µM.
Turning to `COc1cc(NC(=O)[C@H]2CC[C@@H](n3c(=O)[nH]c4c(C(=O)NCCN(C)C)cccc43)CC2)ccc1C` [Example 228, N-[2-(Dimethylamino)ethyl]-2-oxo-1-[cis-4-[(3-methoxy-4-methylphenyl)carbamoyl]cyclohexyl]-2,3-dihydro-1H-1,3-benzodiazole-4-carboxamide], the IC50 against OGG1 came to 0.00015 µM; in the test on MLE12 cells (Mus musculus, MLE12, 24 h), 16.4 µM; in the test with MLE12 cells it was 10.5 µM. In addition, the EC50 came to 11.2 µM with CCL2 and 20.8 µM in the test with CCL2 (Mus musculus, MLE12, 30 h).
Take `COc1cc(NC(=O)[C@H]2CC[C@@H](n3c(=O)[nH]c4c(C(=O)N5CCC[C@H]5CN5CCCC5)cccc43)CC2)ccc1C` [Example 271, Cis-N-(3-methoxy-4-methylphenyl)-4-{2-oxo-4-[(2S)-2-[(pyrrolidin-1-yl)methyl]pyrrolidine-1-carbonyl]-2,3-dihydro-1H-1,3-benzodiazol-1-yl}cyclohexane-1-carboxamide]: the IC50 is 0.056 µM on OGG1 and 4.65 µM with MLE12 cells (Mus musculus, MLE12, 24 h). Further, the half-maximal effective concentration (EC50) with CCL2 (Mus musculus, MLE12, 30 h) was determined as 9.45 µM.
Regarding `CNCCN(C)c1cccc2c1[nH]c(=O)n2[C@H]1CC[C@@H](C(=O)Nc2ccc(C)c(OC)c2)CC1` [Example 297, Cis-N-(3-methoxy-4-methylphenyl)-4-(4-{methyl[2-(methylamino)ethyl]amino}-2-oxo-2,3-dihydro-1H-1,3-benzodiazol-1-yl)cyclohexane-1-carboxamide], the IC50 on OGG1 came out at 0.00807 µM; with MLE12 cells (Mus musculus, MLE12, 24 h) it was 28.9 µM. Also, the EC50 in the test with CCL2 (Mus musculus, MLE12, 30 h) turned out to be 30.8 µM.
As to `O=C(Nc1ccc(Cl)c(Cl)c1)N1CCC(n2c(=O)[nH]c3c(-c4cncnc4)cccc32)CC1` [Example 37, N-(3,4-dichlorophenyl)-4-[2-oxo-4-(pyrimidin-5-yl)-2,3-dihydro-1H-1,3-benzodiazol-1-yl]piperidine-1-carboxamide], the IC50 against OGG1 turned out to be 1.59 µM; in the test with MLE12 cells (Mus musculus, MLE12, 24 h), 7.03 µM. The EC50 in the test on CCL2 (Mus musculus, MLE12, 30 h) was 17.4 µM.
For `COc1cc(NC(=O)[C@H]2CC[C@@H](n3c(=O)[nH]c4c(N5CCNCC5)cccc43)CC2)ccc1C` [Example 240, Cis-N-(3-methoxy-4-methylphenyl)-4-[2-oxo-4-(piperazin-1-yl)-2,3-dihydro-1H-1,3-benzodiazol-1-yl]cyclohexane-1-carboxamide], the IC50 at OGG1 amounted to 0.0153 µM; with MLE12 cells (Mus musculus, MLE12, 24 h), 16.1 µM. In the test with CCL2 (Mus musculus, MLE12, 30 h), the EC50 came out at 21.5 µM.
In the same order, the values of `COc1ccc(NC(=O)[C@H]2CC[C@@H](n3c(=O)[nH]c4c(Br)cccc43)CC2)cn1` [Example 183, Cis-4-(4-bromo-2-oxo-2,3-dihydro-1H-1,3-benzodiazol-1-yl)-N-(6-methoxypyridin-3-yl)cyclohexane-1-carboxamide] are 0.174 µM, 17 µM and 36.2 µM.
On the same counts, the results for `COc1cc(NC(=O)[C@H]2CC[C@@H](n3c(=O)[nH]c4c(C(=O)N5CCN(C)CC5)cccc43)CC2)ccc1C` [Example 268, Cis-N-(3-methoxy-4-methylphenyl)-4-[4-(4-methylpiperazine-1-carbonyl)-2-oxo-2,3-dihydro-1H-1,3-benzodiazol-1-yl]cyclohexane-1-carboxamide] are 0.153 µM, 13.4 µM and > 100 µM.
In the same order, the values of `COc1ncc(NC(=O)[C@H]2CC[C@@H](n3c(=O)[nH]c4c(Br)cccc43)CC2)cc1Cl` [Example 202, Cis-4-(4-bromo-2-oxo-2,3-dihydro-1H-1,3-benzodiazol-1-yl)-N-(5-chloro-6-methoxypyridin-3-yl)cyclohexane-1-carboxamide] are 0.0528 µM, 7.97 µM and 11.6 µM.
On to `COc1cc(NC(=O)[C@H]2CC[C@@H](n3c(=O)[nH]c4c(C(=O)N5CC[C@@H](N(C)C)C5)cccc43)CC2)ccc1C` [Example 267, Cis-4-{4-[(3R)-3-(dimethylamino)pyrrolidine-1-carbonyl]-2-oxo-2,3-dihydro-1H-1,3-benzodiazol-1-yl}-N-(3-methoxy-4-methylphenyl)cyclohexane-1-carboxamide], for which the half-inhibitory concentration (IC50) is 0.0824 µM against OGG1 and 17.9 µM in the test with MLE12 cells (Mus musculus, MLE12, 24 h). The EC50 with CCL2 (Mus musculus, MLE12, 30 h) amounted to 34.1 µM.
Regarding `COc1cc(NC(=O)[C@H]2CC[C@@H](n3c(=O)[nH]c4c(OC5CCNCC5)cccc43)CC2)ccc1C` [Example 307, Cis-N-(3-methoxy-4-methylphenyl)-4-[2-oxo-4-(piperidin-4-yloxy)-2,3-dihydro-1H-1,3-benzodiazol-1-yl]cyclohexane-1-carboxamide], the 50% inhibitory concentration (IC50) on OGG1 amounted to 0.0125 µM; with MLE12 cells (Mus musculus, MLE12, 24 h) it was 28.8 µM. The concentration for a half-maximal effect (EC50) in the test with CCL2 (Mus musculus, MLE12, 30 h) was determined as 32 µM.
As to `Cc1cc(NC(=O)[C@H]2CC[C@@H](n3c(=O)[nH]c4c(Br)cccc43)CC2)ccc1F` [Example 142, (Cis)-4-(4-bromo-2-oxo-2,3-dihydro-1H-1,3-benzodiazol-1-yl)-N-(4-fluoro-3-methylphenyl)cyclohexane-1-carboxamide], the IC50 on OGG1 amounted to 0.497 µM; with MLE12 cells (Mus musculus, MLE12, 24 h), 7.96 µM. Also, the EC50 in the test with CCL2 (Mus musculus, MLE12, 30 h) amounted to 15.8 µM.
In the same order, the values of `COc1cc(NC(=O)[C@H]2CC[C@@H](n3c(=O)[nH]c4c(C(=O)NCCN5CCOCC5)cccc43)CC2)ccc1C` [Example 272, N-[2-(Morpholin-4-yl)ethyl]-2-oxo-1-[cis-4-[(3-methoxy-4-methylphenyl)carbamoyl]cyclohexyl]-2,3-dihydro-1H-1,3-benzodiazole-4-carboxamide] are 0.00411 µM, 27.1 µM and 35.7 µM.
